Assay results reported in patent publication US8435980B2 (AbbVie Inc., priority 2009, dated 2013).

What follows are compounds tested against T1, Cdc7 (BEV coexpressed huCDC7/DBF4) (Homo sapiens, UniProt O00311) (assay: Cdc7 enzyme inhibition assay ([33P]ATP, biotinylated peptide substrate, FlashPlate)). Details: Table 3; enzyme inhibition data (Ki).
T1 construct: made in house; host or cells: BEV (baculovirus expression vector) co-expression; insect cells are implied but no cell line is named
Format: biochemical
Procedure: Cdc7 (BEV coexpressed huCDC7/DBF4) is prepared internally. Cdc7 assays are conducted as follows with final concentrations as listed. […] Reactions are quenched after 1 hr by the addition of 90 μL stop buffer (50 mM EDTA, 2M NaCl). […] (Ki) for exemplary compounds.

T1 sequence (O00311 whole entry): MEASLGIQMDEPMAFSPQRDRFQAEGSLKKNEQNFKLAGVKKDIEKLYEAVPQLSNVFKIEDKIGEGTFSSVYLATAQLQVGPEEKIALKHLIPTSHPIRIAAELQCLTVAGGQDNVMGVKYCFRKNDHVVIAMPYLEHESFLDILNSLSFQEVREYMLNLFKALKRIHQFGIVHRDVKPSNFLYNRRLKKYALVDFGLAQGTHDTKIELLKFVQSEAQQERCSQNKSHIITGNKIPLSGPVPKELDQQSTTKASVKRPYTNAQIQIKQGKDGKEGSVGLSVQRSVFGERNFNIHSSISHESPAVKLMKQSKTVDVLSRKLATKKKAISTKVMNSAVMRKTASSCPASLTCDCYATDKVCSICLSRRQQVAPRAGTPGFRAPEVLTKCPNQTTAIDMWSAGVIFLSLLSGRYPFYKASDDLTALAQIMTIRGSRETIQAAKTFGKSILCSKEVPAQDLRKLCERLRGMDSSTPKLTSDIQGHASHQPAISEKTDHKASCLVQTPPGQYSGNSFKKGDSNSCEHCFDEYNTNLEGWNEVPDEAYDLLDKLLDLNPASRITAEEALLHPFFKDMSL
T1 sequence (Q9UBU7 whole entry partner): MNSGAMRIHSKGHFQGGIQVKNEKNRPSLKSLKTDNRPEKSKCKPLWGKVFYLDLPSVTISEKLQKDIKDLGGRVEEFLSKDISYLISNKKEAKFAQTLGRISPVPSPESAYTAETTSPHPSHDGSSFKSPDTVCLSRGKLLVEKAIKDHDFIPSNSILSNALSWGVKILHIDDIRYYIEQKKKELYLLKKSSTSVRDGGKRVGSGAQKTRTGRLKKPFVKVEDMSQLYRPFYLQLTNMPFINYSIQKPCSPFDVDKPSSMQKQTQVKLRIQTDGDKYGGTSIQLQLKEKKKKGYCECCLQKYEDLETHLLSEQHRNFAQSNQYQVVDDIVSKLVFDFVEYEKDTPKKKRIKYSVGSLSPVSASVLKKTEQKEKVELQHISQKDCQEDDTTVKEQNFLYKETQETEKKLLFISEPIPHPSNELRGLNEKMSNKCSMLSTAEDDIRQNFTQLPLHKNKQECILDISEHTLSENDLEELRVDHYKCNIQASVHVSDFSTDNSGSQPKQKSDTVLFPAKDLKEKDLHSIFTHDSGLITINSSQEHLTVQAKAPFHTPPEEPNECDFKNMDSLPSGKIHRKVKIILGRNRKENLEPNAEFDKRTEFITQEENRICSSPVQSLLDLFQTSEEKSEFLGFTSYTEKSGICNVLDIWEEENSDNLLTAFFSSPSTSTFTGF

Q: For `COc1cc(Cl)ccc1C(=O)N[C@H]1CC[C@H](Nc2cc(-c3c[nH]c4ncccc34)cc(Cl)n2)CC1` [Example 382, 4-chloro-N-(trans-4-{[6-chloro-4-(1H-pyrrolo[2,3-b]pyridin-3-yl)pyridin-2-yl]amino}cyclohexyl)-2-methoxybenzamide], which Ki is on record?
A: < 10 nM

Q: Which Ki does the source give for `O=C(N[C@H]1CC[C@H](Nc2cc(-c3c[nH]c4ncccc34)cc(Cl)n2)CC1)c1cccc(C(F)(F)F)c1` [Example 383, N-(trans-4-{[6-chloro-4-(1H-pyrrolo[2,3-b]pyridin-3-yl)pyridin-2-yl]amino}cyclohexyl)-3-(trifluoromethyl)benzamide] here?
A: < 10 nM

Q: How did the Ki turn out when `Clc1cnc2[nH]cc(-c3cc(Cl)nc(NC4CCCCC4)c3)c2c1` [Example 384, 6-chloro-4-(5-chloro-1H-pyrrolo[2,3-b]pyridin-3-yl)-N-cyclohexylpyridin-2-amine] was run?
A: 10 to 100 nM

Q: For `O=C(N[C@H]1CC[C@H](Nc2cc(-c3c[nH]c4ncccc34)cc(Cl)n2)CC1)c1cccc(Cl)c1` [Example 385, 3-chloro-N-(trans-4-{[6-chloro-4-(1H-pyrrolo[2,3-b]pyridin-3-yl)pyridin-2-yl]amino}cyclohexyl)benzamide], which Ki is on record?
A: < 10 nM

Q: Which Ki does the source give for `COc1ccc(CNc2cc(-c3c[nH]c4ncccc34)cc(Cl)n2)cc1OC` [Example 386] here?
A: 10 to 100 nM

Q: `Clc1cc(-c2c[nH]c3ncccc23)cc(NCCc2ccccn2)n1` [Example 387, 6-chloro-N-[2-(pyridin-2-yl)ethyl]-4-(1H-pyrrolo[2,3-b]pyridin-3-yl)pyridin-2-amine] was tested. Which Ki did it give?
A: < 10 nM

Q: How did the Ki turn out when `Clc1cc(-c2c[nH]c3ncccc23)cc(NCCc2ccccc2)n1` [Example 388, 6-chloro-N-(2-phenylethyl)-4-(1H-pyrrolo[2,3-b]pyridin-3-yl)pyridin-2-amine] was run?
A: < 10 nM

Q: For `CN1CCN(CCCNc2cc(-c3c[nH]c4ncccc34)cc(Cl)n2)CC1` [Example 389, 6-chloro-N-[3-(4-methylpiperazin-1-yl)propyl]-4-(1H-pyrrolo[2,3-b]pyridin-3-yl)pyridin-2-amine], which Ki is on record?
A: 10 to 100 nM

Q: With `Clc1cc(-c2c[nH]c3ncccc23)cc(NCCOc2ccccc2)n1` [Example 390, 6-chloro-N-(2-phenoxyethyl)-4-(1H-pyrrolo[2,3-b]pyridin-3-yl)pyridin-2-amine] as the compound, how does the Ki read?
A: < 10 nM

Q: With `CN(C)CCCNc1cc(-c2c[nH]c3ncccc23)cc(Cl)n1` [Example 391, N′-[6-chloro-4-(1H-pyrrolo[2,3-b]pyridin-3-yl)pyridin-2-yl]-N,N-dimethylpropane-1,3-diamine] as the compound, how does the Ki read?
A: < 10 nM

Q: `Clc1cc(-c2c[nH]c3ncccc23)cc(NC2CCN(Cc3ccccc3)C2)n1` (stereo not drawn) [Example 392, N-(1-benzylpyrrolidin-3-yl)-6-chloro-4-(1H-pyrrolo[2,3-b]pyridin-3-yl)pyridin-2-amine] was tested. Which Ki did it give?
A: < 10 nM

Q: `O=C(NCCS(=O)(=O)N[C@H]1CC[C@H](Nc2cc(-c3c[nH]c4ncccc34)cc(Cl)n2)CC1)c1ccc(F)cc1F` [Example 393, N-{2-[(trans-4-{[6-chloro-4-(1H-pyrrolo[2,3-b]pyridin-3-yl)pyridin-2-yl]amino}cyclohexyl)sulfamoyl]ethyl}-2,4-difluorobenzamide] was tested. Which Ki did it give?
A: < 10 nM

Q: With `O=C(N[C@H]1CC[C@H](Nc2cc(-c3c[nH]c4ncccc34)cc(Cl)n2)CC1)C1CN(Cc2cccc(C(F)(F)F)c2)C1` [Example 394, N-(trans-4-{[6-chloro-4-(1H-pyrrolo[2,3-b]pyridin-3-yl)pyridin-2-yl]amino}cyclohexyl)-1-[3-(trifluoromethyl)benzyl]azetidine-3-carboxamide] as the compound, how does the Ki read?
A: < 10 nM

Q: `O=C(N[C@H]1CC[C@H](Nc2cc(-c3c[nH]c4ncccc34)cc(Cl)n2)CC1)C1CN(Cc2ccc(Cl)cc2Cl)C1` [Example 395, N-(trans-4-{[6-chloro-4-(1H-pyrrolo[2,3-b]pyridin-3-yl)pyridin-2-yl]amino}cyclohexyl)-1-(2,4-dichlorobenzyl)azetidine-3-carboxamide] was tested. Which Ki did it give?
A: < 10 nM

Q: `COc1ccc(CNc2cc(-c3c[nH]c4ncccc34)cc(Cl)n2)cc1` [Example 397, 6-chloro-N-(4-methoxybenzyl)-4-(1H-pyrrolo[2,3-b]pyridin-3-yl)pyridin-2-amine] was tested. Which Ki did it give?
A: < 10 nM

Q: `Oc1ccc(CCNc2cc(-c3c[nH]c4ncccc34)cc(Cl)n2)cc1` [Example 398, 4-(2-{[6-chloro-4-(1H-pyrrolo[2,3-b]pyridin-3-yl)pyridin-2-yl]amino}ethyl)phenol] was tested. Which Ki did it give?
A: < 10 nM

Q: How did the Ki turn out when `Clc1cc(-c2c[nH]c3ncccc23)cc(NCCc2ccc3c(c2)OCO3)n1` [Example 399, N-[2-(1,3-benzodioxol-5-yl)ethyl]-6-chloro-4-(1H-pyrrolo[2,3-b]pyridin-3-yl)pyridin-2-amine] was run?
A: < 10 nM

Q: `Clc1cc(-c2c[nH]c3ncccc23)cc(NCc2ccc3c(c2)OCO3)n1` [Example 400, N-(1,3-benzodioxol-5-ylmethyl)-6-chloro-4-(1H-pyrrolo[2,3-b]pyridin-3-yl)pyridin-2-amine] was tested. Which Ki did it give?
A: < 10 nM

Q: Which Ki does the source give for `COc1ccc(CCNc2cc(-c3c[nH]c4ncccc34)cc(Cl)n2)cc1` [Example 401, 6-chloro-N-[2-(4-methoxyphenyl)ethyl]-4-(1H-pyrrolo[2,3-b]pyridin-3-yl)pyridin-2-amine] here?
A: < 10 nM

Q: For `Clc1cc(-c2c[nH]c3ncccc23)cc(NC2CCN(Cc3ccccc3)CC2)n1` [Example 402, N-(1-benzylpiperidin-4-yl)-6-chloro-4-(1H-pyrrolo[2,3-b]pyridin-3-yl)pyridin-2-amine], which Ki is on record?
A: < 10 nM

Q: How did the Ki turn out when `Clc1cc(-c2c[nH]c3ncccc23)cc(NCCc2ccncc2)n1` [Example 403, 6-chloro-N-[2-(pyridin-4-yl)ethyl]-4-(1H-pyrrolo[2,3-b]pyridin-3-yl)pyridin-2-amine] was run?
A: < 10 nM

Q: `Clc1cc(-c2c[nH]c3ncccc23)cc(NC2Cc3ccccc3C2)n1` [Example 404, 6-chloro-N-(2,3-dihydro-1H-inden-2-yl)-4-(1H-pyrrolo[2,3-b]pyridin-3-yl)pyridin-2-amine] was tested. Which Ki did it give?
A: < 10 nM

Q: Which Ki does the source give for `Clc1cc(-c2c[nH]c3ncccc23)cc(NCCc2c[nH]c3ccccc23)n1` [Example 405, 6-chloro-N-[2-(1H-indol-3-yl)ethyl]-4-(1H-pyrrolo[2,3-b]pyridin-3-yl)pyridin-2-amine] here?
A: < 10 nM

Q: With `Cc1cccc(CN2CC(C(=O)N[C@H]3CC[C@H](Nc4cc(-c5c[nH]c6ncccc56)cc(Cl)n4)CC3)C2)c1C` [Example 406, N-(trans-4-{[6-chloro-4-(1H-pyrrolo[2,3-b]pyridin-3-yl)pyridin-2-yl]amino}cyclohexyl)-1-(2,3-dimethylbenzyl)azetidine-3-carboxamide] as the compound, how does the Ki read?
A: < 10 nM

Q: With `O=C(N[C@H]1CC[C@H](Nc2cc(-c3c[nH]c4ncccc34)cc(Cl)n2)CC1)C1CN(Cc2ccc3cc[nH]c3c2)C1` [Example 407, N-(trans-4-{[6-chloro-4-(1H-pyrrolo[2,3-b]pyridin-3-yl)pyridin-2-yl]amino}cyclohexyl)-1-(1H-indol-6-ylmethyl)azetidine-3-carboxamide] as the compound, how does the Ki read?
A: < 10 nM

Q: How did the Ki turn out when `Clc1cc(-c2c[nH]c3ncccc23)cc(Nc2ccc(OCc3ccccc3)cc2)n1` [Example 408, N-[4-(benzyloxy)phenyl]-6-chloro-4-(1H-pyrrolo[2,3-b]pyridin-3-yl)pyridin-2-amine] was run?
A: < 10 nM

Q: For `Clc1cc(-c2c[nH]c3ncccc23)cc(NCc2nc3ccccc3[nH]2)n1` [Example 409, N-(1H-benzimidazol-2-ylmethyl)-6-chloro-4-(1H-pyrrolo[2,3-b]pyridin-3-yl)pyridin-2-amine], which Ki is on record?
A: < 10 nM
